Literature values, collected in patent publication US20230138262A1, “FAST-DISINTEGRATING SOLID HERBICIDE COMPOSITION AND THE USE THEREOF” (Rotam Agrochem International Company Limited, priority 2021, published 2023).

Tests used:
corn = details: in vivo

**Q.** Which “Time to appearance of albino toxication symptoms in overground part of weeds after application” value (sensitive weeds; after application) does the source give for `Cc1c(C(=O)c2cnn(C)c2O)ccc(S(C)(=O)=O)c1C1=NOCC1` [Topramezone] here?
**A.** Its value is 2 to 5 days.

**Q.** What about the “Time from application to death of weeds” value (sensitive weeds; depending on weather and environment) of the same compound?
**A.** The value was 10 to 15 days.

**Q.** What about the Safety to corn (corn) of the same compound?
**A.** Its Safety to corn is “safe to corn”.
